Measurements taken from ChEMBL document CHEMBL1146881, “Improved replicon cellular activity of non-nucleoside allosteric inhibitors of HCV NS5B polymerase: from benzimidazole to indole scaffolds” (Bioorg Med Chem Lett, 2006).
Active and inactive are the calls of the source. The rule behind the calls is not given here.

Legend:
[1] = target: RNA-directed RNA polymerase (Hepacivirus hominis, UniProt O39930); experiment: Inhibition of HCV 1b NS5B delta21 RNA dependent RNA polymerase by SPA; design: species or system Hepatitis C virus subtype 1b
Chain of RNA-directed RNA polymerase (O39930 whole entry): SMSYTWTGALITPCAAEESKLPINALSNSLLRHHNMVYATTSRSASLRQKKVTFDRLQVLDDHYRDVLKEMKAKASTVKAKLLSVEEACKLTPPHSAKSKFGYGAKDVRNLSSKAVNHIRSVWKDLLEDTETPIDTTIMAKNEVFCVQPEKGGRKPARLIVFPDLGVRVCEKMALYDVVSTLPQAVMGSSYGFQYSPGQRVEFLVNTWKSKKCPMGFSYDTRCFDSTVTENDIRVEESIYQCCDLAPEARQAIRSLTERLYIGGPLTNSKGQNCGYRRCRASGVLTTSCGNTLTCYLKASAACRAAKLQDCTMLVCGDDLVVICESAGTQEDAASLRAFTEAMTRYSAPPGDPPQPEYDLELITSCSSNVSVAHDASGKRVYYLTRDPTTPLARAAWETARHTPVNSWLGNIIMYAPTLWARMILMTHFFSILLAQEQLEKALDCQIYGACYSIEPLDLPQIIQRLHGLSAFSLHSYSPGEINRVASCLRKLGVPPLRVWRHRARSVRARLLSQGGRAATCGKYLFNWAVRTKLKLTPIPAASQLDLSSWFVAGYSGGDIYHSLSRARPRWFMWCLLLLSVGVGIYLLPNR

[2] = test system: Hepatitis C virus; experiment: Inhibition of HCV RNA replication by replicon assay; type: functional, organism-based; conditions: for Activity: Hepacivirus hominis
[3] = target: Genome polyprotein (Human poliovirus 1 Mahoney, UniProt P03300); experiment: Inhibition of poliovirus RNA dependent RNA polymerase; design: species or system Enterovirus C
Chain of Genome polyprotein (P03300 1749-2209 limits assumed): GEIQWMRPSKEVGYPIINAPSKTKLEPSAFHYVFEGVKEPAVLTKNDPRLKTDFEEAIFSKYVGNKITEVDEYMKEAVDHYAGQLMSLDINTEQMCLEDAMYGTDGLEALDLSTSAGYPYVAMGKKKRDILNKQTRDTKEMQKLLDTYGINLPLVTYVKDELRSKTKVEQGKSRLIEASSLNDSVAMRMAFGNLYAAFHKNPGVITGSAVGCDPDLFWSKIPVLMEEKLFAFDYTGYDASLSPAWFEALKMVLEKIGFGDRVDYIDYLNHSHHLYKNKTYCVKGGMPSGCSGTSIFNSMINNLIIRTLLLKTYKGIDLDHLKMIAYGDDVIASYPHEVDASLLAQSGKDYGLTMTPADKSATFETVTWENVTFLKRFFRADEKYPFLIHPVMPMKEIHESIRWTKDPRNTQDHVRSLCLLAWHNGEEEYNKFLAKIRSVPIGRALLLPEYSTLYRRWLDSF

Compound | IC50 [1] | Activity [2] | EC50 [2] | IC50 [3]
O=C(O)c1ccc2c(c1)S(=O)(=O)C(c1ccoc1)=C2C1CCCC1 | > 100000 nM |  |  | 
O=C(O)c1ccc2c(c1)nc(-c1ccccn1)n2C1CCCCC1 | 2700 nM | inactive |  | 
Cn1c(-c2ccoc2)c(C2CCCCC2)c2ccc(C(=O)O)nc21 | 51 nM |  |  | 
Cn1c(-c2ccccc2)c(C2CCCCC2)c2ccc(C(=O)O)nc21 | 80 nM |  | 2200 nM | 
Cn1c(-c2ccccc2)c(C2CCCCC2)c2ccc(C(=O)O)cc21 | 30 nM |  | 6600 nM | 
O=C(O)c1ccc2c(C3CCCCC3)c(-c3ccccc3)[nH]c2c1 | 50 nM |  | > 10000 nM | 
Cc1c(-c2ccccn2)n(C2CCCCC2)c2ccc(C(=O)O)cc12 | 820 nM |  | > 10000 nM | 
O=C(O)c1ccc2c(C3CCCC3)c(-c3ccoc3)oc2c1 | 81 nM |  | 21000 nM | 
O=C(O)c1ccc2c(c1)nc(-c1ccccc1)n2C1CCCCC1 | 3100 nM | inactive |  | 
Cc1c(-c2ccccc2)n(C2CCCCC2)c2ccc(C(=O)O)cc12 | 180 nM |  | > 10000 nM | 
O=C(O)c1ccc2c(C3CCCCC3)c(-c3ccccn3)[nH]c2c1 | 230 nM |  | > 10000 nM | 
Cn1c(-c2ccoc2)c(C2CCCC2)c2ccc(C(=O)O)cc21 | 21 nM |  | 6600 nM | 
Cn1c(-c2ccoc2)c(C2CCCC2)c2ccc(C(=O)O)c(Cl)c21 | 290 nM |  | 37000 nM | 
Cn1c(-c2ccoc2)c(C2CCCCC2)c2ccc(C(=O)O)cc21 | 16 nM |  | 4200 nM | 125000 nM
O=C(O)c1ccc2c(c1)nc(-c1ccoc1)n2C1CCCCC1 | 1100 nM | inactive |  | 
O=C(O)/C=C/c1cc(C2CCCCC2)c(-c2ccccn2)[nH]1 | > 50000 nM |  |  | 
O=C(O)c1ccc2c(C3CCCCC3)c(-c3ccoc3)[nH]c2c1 | 30 nM |  | 6700 nM | > 125000 nM
COc1c(C(=O)O)ccc2c(C3CCCC3)c(-c3ccoc3)n(C)c12 | 340 nM |  | 40000 nM | 
Cc1c(-c2ccoc2)n(C2CCCCC2)c2ccc(C(=O)O)cc12 | 44 nM |  | > 10000 nM | 
Cn1c(-c2ccoc2)c(C2CCCC2)c2ccc(C(=O)O)c(O)c21 | 75 nM |  | 19000 nM | 
O=C(O)/C=C/c1cc(-c2ccccn2)n(C2CCCCC2)n1 | > 100000 nM |  |  | 
O=C(O)c1ccc2c(c1)nc(-c1ccoc1)n2C1CCCC1 | 2200 nM | inactive |  | 
Cn1c(-c2ccoc2)c(C2CCCC2)c2ccc(C(=O)O)c(C(=O)O)c21 | 5300 nM |  |  | 
O=C(O)c1ccc2c(C3CCCC3)c(-c3ccoc3)[nH]c2c1 | 25 nM |  | 6600 nM | 
COC(=O)c1c(C(=O)O)ccc2c(C3CCCC3)c(-c3ccoc3)n(C)c12 | 480 nM |  | 22000 nM | 
O=C(O)c1ccc2c(C3CCCC3)c(-c3ccoc3)sc2c1 | 78 nM |  | 22000 nM | 
Cn1c(-c2ccccn2)c(C2CCCCC2)c2ccc(C(=O)O)cc21 | 90 nM |  | 3900 nM | 
